The values that follow are results of earlier work, collected in patent US20240374879A1, “METHODS AND COMPOSITIONS TO REDUCE CELLULAR DEPOSITION, AND HYDROCEPHALUS SHUNT FAILURE” (Wayne State University, priority 2021, published 2024).

In the series the target is T1, TLR-4 (Mus musculus, UniProt Q9QUK6).
T1 sequence (Q9QUK6 26-835): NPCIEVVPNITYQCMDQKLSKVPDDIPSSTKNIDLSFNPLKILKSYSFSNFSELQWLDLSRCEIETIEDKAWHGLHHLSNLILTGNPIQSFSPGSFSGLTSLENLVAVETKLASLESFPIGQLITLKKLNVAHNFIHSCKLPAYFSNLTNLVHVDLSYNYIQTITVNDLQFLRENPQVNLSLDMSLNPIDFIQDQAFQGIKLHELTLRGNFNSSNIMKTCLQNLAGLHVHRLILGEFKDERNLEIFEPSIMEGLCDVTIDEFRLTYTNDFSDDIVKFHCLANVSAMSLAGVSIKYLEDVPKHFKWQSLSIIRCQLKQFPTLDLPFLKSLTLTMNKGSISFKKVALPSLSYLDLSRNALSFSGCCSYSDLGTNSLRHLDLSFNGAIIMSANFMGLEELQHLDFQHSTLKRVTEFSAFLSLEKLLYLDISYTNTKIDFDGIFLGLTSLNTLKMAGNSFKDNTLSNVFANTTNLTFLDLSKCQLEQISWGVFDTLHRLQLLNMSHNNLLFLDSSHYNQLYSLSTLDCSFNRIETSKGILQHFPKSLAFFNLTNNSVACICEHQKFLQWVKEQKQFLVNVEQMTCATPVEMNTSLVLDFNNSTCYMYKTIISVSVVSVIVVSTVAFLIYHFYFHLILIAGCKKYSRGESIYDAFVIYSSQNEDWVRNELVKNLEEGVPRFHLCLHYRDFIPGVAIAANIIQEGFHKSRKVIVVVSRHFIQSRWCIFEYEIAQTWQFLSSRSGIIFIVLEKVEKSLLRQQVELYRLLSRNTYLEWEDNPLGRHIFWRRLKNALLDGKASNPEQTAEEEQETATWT
The settings on record: 50 mg/kg; four hours post-treatment; cited from earlier work.

Molecules are shown by their SMILES.

As to `O=C(O)CC1CC(c2ccccc2)=NO1` (stereo not shown) [GIT 27, 4,5-Dihydro-3-phenyl-5-isoxazoleacetic acid], the edema result is reported as “significantly reduced”.
